Laboratory results as given in US20260242768A1, “ACETYL-COENZYME A CARBOXYLASE MUTANTS” (CIBUS US LLC, priority 2023, published 2026).

Tests used:
[1] = system: D2078G/P2083T edited rice line; format: in vivo, Oryza sativa; settings: all clethodim spray rates, nine environments
Excerpt: The clethodim herbicide chosen contained 2.0 pounds active ingredient per gallon. Using a randomized completed block design with three replicates, four clethodim spray rates (5.76, 8.30, 12.10 and 16.00 fluid ounces per acre) were compared to an untreated control (“UTC”). Phytotoxicity rates to access crop response were visually scored (7) seven, (14) fourteen and (28) twenty-eight days after clethodim application (“DAA”) using a 0-100% percentage chlorosis scale. All plots were maintained weed free using additional herbicides tolerant by all rice lines. Yield was collected using a research plot combine to harvest the small plot, and yields were standardized to 12.5% moisture before being converted to a percentage of the untreated control.

O. sativa ACCase = assay: Growth of Saccharomyces cerevisiae pseudodiploid acc1Δ strains carrying wild-type or mutant OsACCase plasmids, streaked onto plates with increasing concentrations of clethodim (Examples 5, 7, 10; Tables 8, 12); format: cell-based, Oryza sativa; parameters: key to growth, 0 mM clethodim / growth, 0.025 mM clethodim / growth, 0.1 mM clethodim / growth, 0.25 mM clethodim / growth, 0.5 mM clethodim / growth, 1 mM clethodim: ++ = Strong growth; + = Poor growth; − = No growth; key to relative growth phenotype, 0.5 mM clethodim / relative growth phenotype, 1 mM clethodim / relative growth phenotype, 2 mM clethodim / relative growth phenotype, highGal / relative growth phenotype, lowGal / relative growth phenotype, 0.05 mM clethodim / relative growth phenotype, 0.1 mM clethodim / relative growth phenotype, 0.25 mM clethodim: +++ high growth; ++ moderate growth; + low to negligible growth; (−) some cell debris, no growth; − no growth or cell debris; settings: for growth, 0 mM clethodim / growth, 0.025 mM clethodim / growth, 0.1 mM clethodim / growth, 0.25 mM clethodim / growth, 0.5 mM clethodim / growth, 1 mM clethodim: Table 12; for growth, 0 mM clethodim: plate with 0 mM clethodim; for growth, 0 mM clethodim / growth, 0.025 mM clethodim / growth, 0.1 mM clethodim / growth, 0.25 mM clethodim / growth, 0.5 mM clethodim / growth, 1 mM clethodim / relative growth phenotype, 0.05 mM clethodim / relative growth phenotype, 0.1 mM clethodim / relative growth phenotype, 0.25 mM clethodim / relative growth phenotype, 0.5 mM clethodim / relative growth phenotype, 1 mM clethodim / relative growth phenotype, 2 mM clethodim: galactose 0.01%; for growth, 0.025 mM clethodim: plate with 0.025 mM clethodim; for growth, 0.1 mM clethodim / relative growth phenotype, 0.1 mM clethodim: plate with 0.1 mM clethodim; for growth, 0.25 mM clethodim / relative growth phenotype, 0.25 mM clethodim: plate with 0.25 mM clethodim; for growth, 0.5 mM clethodim / relative growth phenotype, 0.5 mM clethodim: plate with 0.5 mM clethodim; for growth, 1 mM clethodim / relative growth phenotype, 1 mM clethodim: plate with 1 mM clethodim; for clethodim tolerance compared to the wild-type (wt) control strain: Example 5; for relative growth phenotype, 0.05 mM clethodim: plate with 0.05 mM clethodim; for relative growth phenotype, 2 mM clethodim: plate with 2 mM clethodim; for relative growth phenotype, highGal / relative growth phenotype, lowGal: yeast acc1Δ strain with OsACCase plasmid, no clethodim; for relative growth phenotype, highGal: high galactose plate; for relative growth phenotype, lowGal: low galactose plate
Excerpt: Mutations at position N2097S and V2098A were combined to determine if point mutations at both positions gave increased resistance compared to either single point mutation. Each of these respective mutations (N2097S, V2098A and N2097S/V2098A) were generated by standard methods and introduced into a Saccharomyces cerevisiae pseudodiploid acc1Δ strain with a plasmid containing wild-type O. sativa ACCase gene. Once each of these mutations were introduced by recombination mediated mutagenesis, the OsACCase wild-type plasmid was removed, and mutation strains were confirmed by sequencing. The three strains, along with a series of controls including a WT strain (negative control), an I1781L mutant strain, and a D2078G mutant strain (positive control), were streaked onto plates with increasing concentrations of clethodim. […] These observations argue that N2097S is an enhancer of V2098A tolerance.
Edits at position S1784N and A1785G were combined to determine if point mutations at both of these two positions gave increased resistance compared to either single point mutation. Each of these respective mutations (S1784N, A1785G and S1784N/A1785G) were generated by standard methods and introduced into a Saccharomyces cerevisiae pseudodiploid acc1Δ strain with a plasmid containing wild-type O. sativa ACCase gene. Once each of these mutations were introduced by recombination mediated mutagenesis, the OsACCase wild-type plasmid was removed, and mutation strains were confirmed by sequencing. The three strains, along with a series of controls including a WT strain (negative control), an I1781L mutant strain, a D2078G mutant strain (positive control), and a V2075L mutant strain were streaked onto plates with increasing concentrations of clethodim.
Each of these respective mutations (D2078G, P2083T, D2078G/P2083T) were generated by standard methods and introduced into a Saccharomyces cerevisiae pseudodiploid acc14 strain with a plasmid containing the wild-type O. sativa ACCase gene. Once plasmids bearing each of these mutations, introduced using recombination-mediated mutagenesis, the OsACCase wild-type plasmid was removed, and strains bearing each mutant plasmid were confirmed by sequencing. The three strains, along with a series of controls including a wild-type strain (negative control), an I1781L mutant strain (medium control), and a pre-existing D2078G mutant strain (positive control) were streaked onto plates with increasing concentrations of clethodim.

rice Oryza sativa = assay: Regenerated edited rice shoots established in soil, greenhouse: plant growth, herbicide tolerance, fertility (Example 9); format: in vivo
Excerpt: The D2078G mutation was introduced into a native rice Oryza sativa ACCase gene utilizing PEG delivery of CRISPR-Cas and GRONs into protoplasts. Examples of target spacer sequences for sgRNA targeting the rice ACCase gene are shown, but not limited to, those listed in the below Table 9. Sequence information for exemplary GRONs is shown, but not limited to those listed in the below Table 10. Rice protoplasts were isolated from cell suspension cultures initiated from Cypress mature seed-derived embryogenic calli. A non-coding D2078G GRON with RNP (CRISPR-Cas9 protein plus gRNA complex) was introduced into rice protoplasts using PEG-mediated delivery method. Following PEG treatment, protoplasts were cultured in liquid medium and kept stationary in the dark at 26±2° C. for 2 weeks. After 2 weeks, culture plates were gently scraped to release the divided protoplasts from the bottom of the plates and added equal volume of fresh liquid medium. These cultures were transferred on a rotatory shaker and incubated in the dark at 26±2° C. […]
(§1) The results of herbicide rate tolerance field trials of the D2078G/P2083T line can be seen below in Table 11. The edited plants were sprayed with clethodim, and plant injury was visually scored at (7) seven, (14) fourteen, and (28) days after application of the herbicide (“DAA”) on a 0-100% percentage scale for chlorosis of newest leaf-tips and growing points.

D2078G/P2083T line = format: in vivo, Oryza sativa; settings: sprayed with clethodim
Excerpt: as §1

[2] = system: rice (Oryza sativa) plastidal ACCase; assay: Clethodim tolerance of rice ACCase mutations, yeast complementation assay (Examples 1-3); format: cell-based; settings: for clethodim tolerance: ACCase mutation tested with the herbicide clethodim
Excerpt: Joachimiak M. et al Proc Natl Acad Sci U.S.A. 1997 Sep. 2; 94 (18): 9990-5 and WO/2013/074524 and WO/2013/074524 each describe methods to complement a yeast (Saccharomyces cerevisiae) strain lacking the native acc1 gene with either a wt or mutated form of a chimeric plastidal ACCase gene from a plant such as rice (Oryza sativa). Methods to introduce one or more mutations listed herein into the chimeric ACCase gene and subsequently complement the acc1 lacking yeast strain are well known by an individual skilled in the art. In the art assays are known for measuring tolerance of a mutated plant ACCase gene versus a herbicide that is a member of the aryloxyphenoxypropanoate, cyclohexanedione, and/or phenylpyrazoline families of herbicides such as clethodim, sethoxydim, fluazifop, haloxyfop, quizalofop, and pinoxaden (Joachimiak M. et al Proc Natl Acad Sci U.S.A. 1997 Sep. 2; 94 (18): 9990-5 and WO/2013/074524).
A library of random mutations in the rice (Oryza sativa) plastidal ACCase gene was generated and screened for clethodim tolerant clones using a yeast complementation assay.

[3] = Cha et al., Pesticide Biochemistry and Physiology 111 (2014) 7-13; cited from earlier work
[4] = plates with increasing clethodim, 0.01% galactose

relative growth phenotype, 0.05 mM clethodim (O. sativa ACCase)	relative growth phenotype, 0.1 mM clethodim (O. sativa ACCase)	relative growth phenotype, 0.25 mM clethodim (O. sativa ACCase)	relative growth phenotype, 0.5 mM clethodim (O. sativa ACCase)	relative growth phenotype, 1 mM clethodim (O. sativa ACCase)	relative growth phenotype, 2 mM clethodim (O. sativa ACCase)	relative growth phenotype, highGal (O. sativa ACCase)	relative growth phenotype, lowGal (O. sativa ACCase)	Substance	growth, 0 mM clethodim (O. sativa ACCase)	growth, 0.025 mM clethodim (O. sativa ACCase)	growth, 0.1 mM clethodim (O. sativa ACCase)	growth, 0.25 mM clethodim (O. sativa ACCase)	growth, 0.5 mM clethodim (O. sativa ACCase)	growth, 1 mM clethodim (O. sativa ACCase)	herbicide tolerance (rice Oryza sativa)	clethodim tolerance compared to the wild-type (wt) control strain (O. sativa ACCase; [4])	clethodim tolerance [2]	further results
								D2078G/P2083T: double mutant ACCase; yeast strain and edited rice line	++	++	++	++	++	+	herbicide tolerance			plant injury [1]: low plant injury; yield [1]: good yield; meristem necrosis (D2078G/P2083T line): limited meristem necrosis except at the highest rates of herbicide application; yield (D2078G/P2083T line; compared to the untreated control plants): increased yield; plant injury (D2078G/P2083T line; visually scored 7, 14, 28 DAA): low plant injury
+++	+++	+++	+++	+	(−)	+++	+++	D2078G: mutated ACCase, numbering per SEQ ID NO: 2; positive control strain; also edited rice shoots	++	++	++	++	++	+	strong herbicide tolerance	did produce tolerance	measurable clethodim tolerance	clethodim concentrations on which the strain grew (O. sativa ACCase; Example 7, plates with increasing clethodim, 0.01% galactose): up to 1.0 mM
								N2097D: mutated ACCase, numbering per SEQ ID NO: 2									neither the N2097S nor the N2097D single mutations provide detectable clethodim tolerance	effect on clethodim tolerance when combined with D2078G, V2075L or V2098A ([2]; combined with either D2078G, V2075L or V2098A): produces opposing results; tolerance to the fluazifop herbicide [3]: associated with tolerance to the fluazifop herbicide
+++	+++	+	(−)	(−)	(−)	+++	+++	S1784N: mutated ACCase, numbering per SEQ ID NO: 2									measurable clethodim tolerance	
+++	+++	+++	+++	+	(−)	+++	+++	V2075L: mutated ACCase, numbering per SEQ ID NO: 2									measurable clethodim tolerance	growth on clethodim plates (in words) (O. sativa ACCase; [4]): grew to a similar extent as the V2075L mutation
								V2098A: mutated ACCase, numbering per SEQ ID NO: 2								did produce tolerance	measurable clethodim tolerance	
